This assay relates to SH-SY5Y cells. Description: mito-mKeima mitophagy assay (mitophagy index). In kind it is cell-based, human. The settings on record: for enhancement of mitophagy: co-treating with excess TSPO ligand. The method, then: FIG. 1. The structure of AUTAC-4 is shown in (A). (B) Representative images of SH-SY5Y cells stably expressing the mito-mKeima reporter treated with AUTAC4 for 18 h. Nuclei were stained with Hoechst 33342, healthy mitochondria are shown in green and mitochondria in lysosomes are shown in red. (C-E) Fold change in mitophagy index over time after treatment with increasing concentrations of AUTAC4 under treatment with DMSO (C), 3 mM CCCP (D) or 0.1/0.1 mM antimycin/oligomycin (E), also for 18 h. (F) Quantification of changes in mitochondrial membrane potential over time (DYm) by measuring the TMRM relative fluorescence intensity (RFI) treated with DMSO, 10 mM CCCP, 10 mM and 20 mM AUTAC4. Normalised to number of nuclei. (G) Representative western blot of SH-SY5Y cells treated with DMSO, 10 mM AUTAC4 or 10 mM AUTAC4+0.1/0.1 mM antimycin/oligomycin for 18 h and, probed for p62, b-actin and Tom20. Quantifications of western blot for changes in Tom20 and p62 levels shown in (H) and (I), respectively. (J) Representative images of PANC-1 cells stably expressing the mCherry-EGFP-LC3 tandem reporter. Nuclei stained with Hoechst 33342, autophagosomes are shown in the EGFP channel and autolysosomes in the mCherry channel. Fold change in the number of autophagosome (K) and autolysosome (L) puncta in AUTAC4 treated cells. All data shown are mean±SEM, n=3, *p<0.05, *** p<0.001. For mito-mKeima experiments, statistics were calculated by Two-way ANOVA with Tukey's multiple comparisons test. For western blots, TMRM and LC3 tandem reporter assay, statistics were calculated with one-way ANOVA with Tukey's multiple comparisons test.
FIG. 5. ULKTACs induce potent mitophagy after colocalisation and local activation of ULK1 at mitochondria (A) Representative immunofluorescence of PANC-1 cells treated with CCCP, ULKTACs or both and immunostained for TOM20 and ULK1 and counterstained with Alexa 488 and 568, respectively. Nuclei stained with Hoechst 33342. (B) Quantification of the colocalised ULK1 to TOM20 spot area of PANC-1 cells treated with DMSO, 5 mM CCCP, 10 mM BL-918, 10 mM BL-918+5 mM CCCP, […] NZ-65, […] NZ-65+5 mM CCCP, […] NZ-66, […] NZ-66+5 mM CCCP, 50 mM TSPO ligand, […] NZ-65+50 mM TSPO ligand, […] NZ-66+50 mM TSPO ligand. (C) Western blot of SH-SY5Y cells treated with 1 mM ULKTACs, 5 mM CCCP or both, probed for Mfn2, b-Actin and Tom20—quantifications are shown in (D) for Mfn2, normalised to Actin. (E) Representative images of SH-SY5Y cells stably expressing the mito-mKeima reporter treated with 3 mM CCCP, NZ-65 or both. Nuclei were stained with Hoechst 33342, healthy mitochondria are shown in green and mitochondria in lysosomes are shown in red. Fold change in mitophagy index over time after treatment for the indicated timepoints with title treatments alone or co-treated with 1.25 mM ULKTAC or 10 mM ULKTAC NZ-65 (F) or NZ-66 (G). Fold change in mitophagy index over time after treatment for the indicated timepoints with DMSO, 1.25 µM NZ-65 or NZ-66±50 µM TSPO ligand under co-treatment with DMSO (H) or 3 μM CCCP (I). […] Normalised to number of nuclei. All data shown are mean±SEM, n=3, *p<0.05, ** p<0.01, *** p<0.001. For colocalisation and TMRM experiments, one-way ANOVA with Dunnett's multiple comparisons test. For western blots, one-way ANOVA with Tukey's multiple comparisons test and unpaired t-test. For mito-mKeima experiment, two-way ANOVA with Tukey's multiple comparisons test.
SH-SY5Y stably expressing mito-mKeima were produced as previously described28,29. Cells were seeded in 384 well CellCarrier Ultra plates (PerkinElmer) 24 hours before treatment in complete media without phenol red. Cells were treated with increasing concentrations of BL-918, AUTAC4, NZ-65 or NZ-66, 24 hours prior to treatment with increasing concentrations of mitochondrial uncouplers to cause mitochondrial insult. SH-SY5Y mitochondria were treated with DMSO, 3 μM CCCP, 10 μM CCCP, 0.1/0.1 μM antimycin/oligomycin (AO), 0.5/0.5 µM AO or 1/1 μM AO. […]

[1] abbreviates: co-treatment with antimycin/oligomycin.

Here are results for three compounds from US20260335323A1, “CHIMERIC MOLECULE” (UCL Business Ltd, priority 2023, published 2026).

For the compound `O=C(Nc1ccc(F)cc1F)[C@H](NC(=S)Nc1cc(C(F)(F)F)cc(C(F)(F)F)c1)c1ccccc1` [BL-918, reference compound], the induction of mitophagy entry (compound alone, higher concentrations) was “induction of mitophagy only at higher concentrations”.
With `O=C(Nc1cc(C(F)(F)F)cc(C(F)(F)F)c1)N[C@@H](C(=O)Nc1ccc(F)cc1F)c1ccc(OCc2cn(CCOCCOCCNC(=O)C(=O)c3c(-c4ccccc4)[nH]c4ccccc34)nn2)cc1` [NZ-65, (R)-2-(3-(3,5-bis(trifluoromethyl)phenyl)ureido)-N-(2,4-difluorophenyl)-2-(4-((1-(2-(2-(2-(2-oxo-2-(2-phenyl-1H-indol-3-yl)acetamido)ethoxy)ethoxy)ethyl)-1H-1,2,3-triazol-4-yl)methoxy)phenyl) acetamide], the enhancement of mitophagy result was “restricts enhancement of mitophagy”. Also, for the setting “co-treatment with CCCP”, the “enhancement of induced mitophagy” value is “remarkably strong increases in mitophagy”. Moreover, under setting [1], the “enhancement of induced mitophagy” value is on record as “remarkably strong increases in mitophagy”.
Consider `O=C(Nc1cc(C(F)(F)F)cc(C(F)(F)F)c1)N[C@@H](C(=O)Nc1ccc(F)cc1F)c1ccc(OCc2cn(CCCCCCNC(=O)C(=O)c3c(-c4ccccc4)[nH]c4ccccc34)nn2)cc1` [NZ-66, (R)-2-(3-(3,5-bis(trifluoromethyl)phenyl)ureido)-N-(2,4-difluorophenyl)-2-(4-((1-(6-(2-oxo-2-(2-phenyl-1H-indol-3-yl)acetamido)hexyl)-1H-1,2,3-triazol-4-yl)methoxy)phenyl) acetamide], for which the enhancement of mitophagy entry was “restricts enhancement of mitophagy”. In addition, the “enhancement of induced mitophagy” value (co-treatment with CCCP) is “remarkably strong increases in mitophagy”. In addition, under setting [1], the “enhancement of induced mitophagy” value is “remarkably strong increases in mitophagy”.
